These results are taken from US9440952B2, “Compounds inhibiting leucine-rich repeat kinase enzyme activity” (Merck Sharp & Dohme Corp., priority 2013, dated 2016).

SMILES strings stand for the structures.

One may read the IC50 as the concentration that inhibits the measured activity by half. Broadly, the inhibition is the drop in the measured response relative to a control, in per cent.

Holding throughout (type): biochemical
For assay [1], the target named is T1, LRRK2(G2019S mutation, GST-LRRK2(amino acids 970-2527)) (Homo sapiens, UniProt Q5S007, G2019S).
T1 construct: GST-LRRK2(amino acids 970-2527); GST (N); purchased Life Technologies Corporation
Nature of the assay: LRRK2 5 mM ATP LanthaScreen Assay. Particulars: mean IC50 of several tests. How it is done: The data presented for the 5 mM and Km ATP LanthaScreen™ Assay represents mean IC50 values based on several test results and may have reasonable. deviations depending on the specific conditions and reagents used. Reagents for the LRRK2 5 mM and Km ATP LanthaScreen™ Assay were purchased from Life Technologies Corporation.
LRRK2 5 mM ATP LanthaScreen™ Assay • a) 400 nl of a 1:2.15 serial dilution of test compound (98 μM top assay concentration) is spotted via Labcyte Echo to certain wells in a 384 well black, untreated plate. […] Results are analysed using Assay Data Analyzer.
(In general: In TR-FRET formats the signal depends on donor and acceptor labels being close together.)

Assay [2] deals with T1, LRRK2(G2019S mutation, GST-LRRK2(amino acids 970-2527)). Nature of the assay: LRRK2 Km ATP LanthaScreen Assay. To be noted: read-out: LRRK2 IC50. In outline: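 IC50 values are means of several runs in the Km-ATP LanthaScreen format, analysed by curve fitting of the LanthaScreen read-out.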
Assay [3] addresses T2, kinases (Table B) (Homo sapiens, UniProt P45983).
T2 construct: purchased Life Technologies Corporation
Nature of the assay: Kinase selectivity, Z'-LYTE or Adapta assay platforms (Life Technologies). Particulars: MAPK8 (JNK1), Z-LYTE, read-out: percent inhibition MAPK8 (JNK1); for inhibition at 1 µM: test conc 1 μM.

For assay [4], the system named is kinases (Table B). Described as above. Particulars: for percent inhibition CDK1/cyclin B / percent inhibition CLK2 / percent inhibition JAK3: Z-LYTE; for percent inhibition IRAK1: Adapta.
The target in assay [5] is T3, kinases (Table B) (Homo sapiens, UniProt Q13627).
T3 construct: purchased Life Technologies Corporation
Described as above. To be noted: DYRK1A, Z-LYTE, read-out: percent inhibition DYRK1A; for inhibition at 0.1 µM: test conc 0.100 μM; for inhibition at 1 µM: test conc 1 μM.

Assay [6] concerns the target T4, kinases (Table B) (Homo sapiens, UniProt P15056, V600E).
T4 construct: purchased Life Technologies Corporation
The assay is described as above. To be noted: BRAF V599E, Z-LYTE, read-out: percent inhibition BRAF V599E; for inhibition at 1 µM: test conc 1 μM.

Assay [7] has as its target T5, kinases (Table B) (Homo sapiens, UniProt O96017).
T5 construct: purchased Life Technologies Corporation
The description is as above. Particulars: CHEK2 (CHK2), Z-LYTE, read-out: percent inhibition CHEK2 (CHK2); for inhibition at 1 µM: test conc 1 μM.

Assay [8] addresses T6, kinases (Table B) (Homo sapiens, UniProt Q96GD4).
T6 construct: purchased Life Technologies Corporation
The description is as above. To be noted: AURKB (Aurora B), Z-LYTE, read-out: percent inhibition AURKB (Aurora B); for inhibition at 0.1 µM: test conc 0.100 μM; for inhibition at 1 µM: test conc 1 μM.

Assay [9] concerns the target T7, kinases (Table B) (Homo sapiens, UniProt P28482).
T7 construct: purchased Life Technologies Corporation
The assay is described as above. To be noted: MAPK1 (ERK2), Z-LYTE, read-out: percent inhibition MAPK1 (ERK2); for inhibition at 0.1 µM: test conc 0.100 μM; for inhibition at 1 µM: test conc 1 μM.

Where [10] appears, read: Km ATP LanthaScreen, mean IC50 of several tests.

T5 sequence (O96017 whole entry): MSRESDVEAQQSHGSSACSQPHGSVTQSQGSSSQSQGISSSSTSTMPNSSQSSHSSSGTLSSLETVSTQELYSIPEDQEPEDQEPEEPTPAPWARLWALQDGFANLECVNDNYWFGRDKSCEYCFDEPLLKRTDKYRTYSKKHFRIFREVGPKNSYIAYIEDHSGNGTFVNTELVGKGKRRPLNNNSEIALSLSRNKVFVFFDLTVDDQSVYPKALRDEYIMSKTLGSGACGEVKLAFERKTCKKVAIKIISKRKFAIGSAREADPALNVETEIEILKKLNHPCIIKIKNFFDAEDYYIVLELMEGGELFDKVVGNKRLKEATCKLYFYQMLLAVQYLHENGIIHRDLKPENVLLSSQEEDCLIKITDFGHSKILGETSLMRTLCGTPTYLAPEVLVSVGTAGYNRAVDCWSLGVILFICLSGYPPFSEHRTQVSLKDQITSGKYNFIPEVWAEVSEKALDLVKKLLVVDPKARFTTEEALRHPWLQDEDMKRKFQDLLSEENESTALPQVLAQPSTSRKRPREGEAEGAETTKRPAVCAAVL
T4 sequence (P15056 whole entry V600E): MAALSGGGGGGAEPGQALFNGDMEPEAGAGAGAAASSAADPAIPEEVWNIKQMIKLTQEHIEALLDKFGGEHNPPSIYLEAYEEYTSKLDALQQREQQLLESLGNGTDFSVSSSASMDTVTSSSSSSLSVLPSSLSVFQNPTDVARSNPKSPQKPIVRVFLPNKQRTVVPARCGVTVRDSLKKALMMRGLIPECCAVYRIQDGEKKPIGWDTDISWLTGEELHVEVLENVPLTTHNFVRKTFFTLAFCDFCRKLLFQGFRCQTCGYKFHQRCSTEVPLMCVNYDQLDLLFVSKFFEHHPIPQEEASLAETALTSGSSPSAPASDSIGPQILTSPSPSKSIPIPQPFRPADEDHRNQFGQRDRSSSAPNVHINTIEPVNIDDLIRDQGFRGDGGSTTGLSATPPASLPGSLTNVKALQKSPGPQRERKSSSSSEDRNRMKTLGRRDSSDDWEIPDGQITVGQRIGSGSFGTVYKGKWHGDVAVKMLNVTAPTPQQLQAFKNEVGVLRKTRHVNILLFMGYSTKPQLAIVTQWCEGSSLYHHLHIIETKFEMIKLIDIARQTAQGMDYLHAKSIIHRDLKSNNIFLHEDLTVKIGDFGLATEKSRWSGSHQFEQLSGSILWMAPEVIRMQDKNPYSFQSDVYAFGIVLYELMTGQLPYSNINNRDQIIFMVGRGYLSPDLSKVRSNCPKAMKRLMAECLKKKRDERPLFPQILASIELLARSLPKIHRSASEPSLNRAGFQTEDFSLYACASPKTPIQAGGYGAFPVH
T1 sequence (Q5S007 970-2527 G2019S): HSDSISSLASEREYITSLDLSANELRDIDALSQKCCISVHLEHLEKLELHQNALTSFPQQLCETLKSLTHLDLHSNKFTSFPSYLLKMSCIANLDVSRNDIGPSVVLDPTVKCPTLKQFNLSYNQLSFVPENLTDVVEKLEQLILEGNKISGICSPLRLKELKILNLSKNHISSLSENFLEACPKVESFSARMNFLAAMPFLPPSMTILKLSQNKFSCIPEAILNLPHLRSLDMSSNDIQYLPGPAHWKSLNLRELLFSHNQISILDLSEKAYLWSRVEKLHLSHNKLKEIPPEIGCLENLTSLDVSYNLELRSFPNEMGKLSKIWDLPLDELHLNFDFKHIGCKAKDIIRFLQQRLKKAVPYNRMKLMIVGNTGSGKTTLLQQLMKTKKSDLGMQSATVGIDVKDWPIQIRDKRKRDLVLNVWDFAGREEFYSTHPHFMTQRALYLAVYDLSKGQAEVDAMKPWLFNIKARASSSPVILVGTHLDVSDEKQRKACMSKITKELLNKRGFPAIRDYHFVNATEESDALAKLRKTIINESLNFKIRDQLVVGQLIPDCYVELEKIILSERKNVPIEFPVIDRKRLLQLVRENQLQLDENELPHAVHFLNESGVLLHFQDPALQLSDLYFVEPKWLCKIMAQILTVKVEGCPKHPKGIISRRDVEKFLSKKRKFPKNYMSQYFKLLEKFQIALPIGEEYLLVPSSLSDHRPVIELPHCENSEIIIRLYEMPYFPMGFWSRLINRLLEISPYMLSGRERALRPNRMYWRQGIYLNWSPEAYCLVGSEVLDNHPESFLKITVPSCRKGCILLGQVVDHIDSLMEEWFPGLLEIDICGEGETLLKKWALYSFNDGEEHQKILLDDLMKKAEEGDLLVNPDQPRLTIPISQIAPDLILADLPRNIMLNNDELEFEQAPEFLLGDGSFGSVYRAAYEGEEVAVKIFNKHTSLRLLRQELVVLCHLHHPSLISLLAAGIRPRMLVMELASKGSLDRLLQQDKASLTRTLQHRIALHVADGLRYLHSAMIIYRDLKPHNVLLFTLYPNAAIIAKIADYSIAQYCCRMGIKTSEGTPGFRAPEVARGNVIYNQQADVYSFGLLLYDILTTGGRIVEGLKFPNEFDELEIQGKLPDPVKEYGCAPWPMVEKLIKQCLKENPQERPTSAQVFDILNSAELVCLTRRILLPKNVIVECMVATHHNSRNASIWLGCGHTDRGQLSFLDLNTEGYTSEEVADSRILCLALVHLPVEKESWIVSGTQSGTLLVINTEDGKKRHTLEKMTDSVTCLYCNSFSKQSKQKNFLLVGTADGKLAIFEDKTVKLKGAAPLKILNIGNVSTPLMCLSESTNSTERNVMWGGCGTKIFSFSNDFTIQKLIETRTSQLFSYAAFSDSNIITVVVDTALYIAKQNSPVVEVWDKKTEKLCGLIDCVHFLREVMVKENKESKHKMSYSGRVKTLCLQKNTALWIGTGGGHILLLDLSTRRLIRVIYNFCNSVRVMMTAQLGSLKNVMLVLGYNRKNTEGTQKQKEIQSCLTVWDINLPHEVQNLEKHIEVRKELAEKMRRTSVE
T7 sequence (P28482 whole entry): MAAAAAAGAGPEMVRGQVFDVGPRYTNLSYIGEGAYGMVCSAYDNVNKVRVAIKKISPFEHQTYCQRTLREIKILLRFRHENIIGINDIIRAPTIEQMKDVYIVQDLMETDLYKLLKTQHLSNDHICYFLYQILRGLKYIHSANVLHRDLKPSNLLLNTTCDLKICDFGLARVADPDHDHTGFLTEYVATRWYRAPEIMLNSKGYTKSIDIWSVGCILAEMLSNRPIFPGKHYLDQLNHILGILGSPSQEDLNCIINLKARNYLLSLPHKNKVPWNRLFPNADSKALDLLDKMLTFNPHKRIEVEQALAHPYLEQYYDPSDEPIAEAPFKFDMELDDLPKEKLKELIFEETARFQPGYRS
T2 sequence (P45983 whole entry): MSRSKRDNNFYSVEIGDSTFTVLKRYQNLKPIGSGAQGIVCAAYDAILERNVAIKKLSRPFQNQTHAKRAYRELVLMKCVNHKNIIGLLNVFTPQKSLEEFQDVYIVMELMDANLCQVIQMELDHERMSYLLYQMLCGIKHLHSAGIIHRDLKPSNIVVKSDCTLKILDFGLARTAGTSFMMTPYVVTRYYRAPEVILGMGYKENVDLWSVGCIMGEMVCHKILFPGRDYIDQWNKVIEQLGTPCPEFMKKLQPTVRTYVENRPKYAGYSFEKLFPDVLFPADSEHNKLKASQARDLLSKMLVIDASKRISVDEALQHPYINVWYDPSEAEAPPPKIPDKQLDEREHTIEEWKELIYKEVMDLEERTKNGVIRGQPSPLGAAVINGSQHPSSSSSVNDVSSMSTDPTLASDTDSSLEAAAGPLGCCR
T6 sequence (Q96GD4 whole entry): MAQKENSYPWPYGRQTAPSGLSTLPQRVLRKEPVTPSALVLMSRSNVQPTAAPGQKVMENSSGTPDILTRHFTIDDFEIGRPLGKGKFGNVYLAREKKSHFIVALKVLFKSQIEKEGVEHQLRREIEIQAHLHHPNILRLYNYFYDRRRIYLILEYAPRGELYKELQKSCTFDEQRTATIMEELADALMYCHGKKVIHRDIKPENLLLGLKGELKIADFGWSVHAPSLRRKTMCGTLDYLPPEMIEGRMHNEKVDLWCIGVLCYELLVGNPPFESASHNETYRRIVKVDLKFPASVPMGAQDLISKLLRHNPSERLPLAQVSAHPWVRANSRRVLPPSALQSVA

Consider `Cn1cc(-c2ccc3[nH]nc(-c4ccnc(N5CC(F)C5)c4)c3c2)cn1` [Ex 376], for which the half-maximal inhibitory concentration (IC50) was 23 nM in assay [1] and less than 0.6 nM in [2] (setting [10]).
With `Oc1cc(-c2ccc3[nH]nc(-c4ccnc(N5CCC(O)CC5)c4)c3c2)ccn1` [Example 121], the IC50 came out at 16 nM in assay [1] and 1.4 nM in assay [2] (Km ATP LanthaScreen Assay, LRRK2 G2019S, mean IC50 values).
Consider `Cc1c(-c2ccc3[nH]nc(-c4ccnc(N5CCOCC5)c4)c3c2)cnn1C` [Example 316], for which the concentration for half-maximal inhibition (IC50) in [1] turned out to be 8 nM; in assay [2] (setting [10]) it was 2.1 nM.
The matching figures for `CC(C)Oc1ccc2[nH]nc(-c3ccnc(N4CCNC(=O)C4)c3)c2c1` [Example 311]: 14 nM and less than 0.6 nM.
As for `Cn1cc(-c2ccc3[nH]nc(-c4ccnc(N5CCN(S(C)(=O)=O)CC5)c4)c3c2)cn1` [Example 381], the figures for the 50% inhibitory concentration (IC50) in assay [1] and in [2] (setting [10]) were 24 nM and 1.9 nM, respectively. The inhibition at 0.1 µM on kinases (Table B) [3] (test conc 0.100 μM) came to 25%; on kinases (Table B) [5], 78%; at kinases (Table B) [6] (test conc 0.100 μM), 11%; on kinases (Table B) [7] (test conc 0.100 μM) it was 19%; on kinases (Table B) [8] it was 13%; at kinases (Table B) [9], 11%. The “percent inhibition CDK1/cyclin B” value in the assay with kinases (Table B) [4] (test conc 0.100 μM) is reported as 26%. In addition, the “percent inhibition CLK2” value in the assay with kinases (Table B) [4] (test conc 0.100 μM) is listed as 91%. Also, the “percent inhibition IRAK1” value in the assay on kinases (Table B) [4] (test conc 0.100 μM) is given as 20%. The “percent inhibition JAK3” value with kinases (Table B) [4] (test conc 0.100 μM) was found to be 4%.
`CC(C)Oc1ccc2[nH]nc(-c3ccnc(N4CCN(S(C)(=O)=O)CC4)c3)c2c1` [Example 289]: the half-maximal inhibitory concentration (IC50) in assay [1] is 16 nM; in assay [2] (setting [10]), 2.7 nM. Moreover, the inhibition at 1 µM worked out at 54% on kinases (Table B) [3]; 12% at kinases (Table B) [5]; 64% at kinases (Table B) [6]; 26% at kinases (Table B) [7]; 23% at kinases (Table B) [8]; 55% on kinases (Table B) [9]. In the assay with kinases (Table B) [4] (test conc 1 μM), the “percent inhibition CDK1/cyclin B” value is recorded as 18%. The “percent inhibition CLK2” value in the assay with kinases (Table B) [4] (test conc 1 μM) amounted to 49%. Moreover, the “percent inhibition IRAK1” value in the assay with kinases (Table B) [4] (test conc 1 μM) is 6%. In the assay with kinases (Table B) [4] (test conc 1 μM), the “percent inhibition JAK3” value is 29%.
`CC(C)Oc1ccc2[nH]nc(-c3ccnc(N4CCN(C)CC4)c3)c2c1` [Example 383] came in with a 50% inhibitory concentration (IC50) in [1] of 22 nM. Further, in the assay with kinases (Table B) [4] (test conc 0.100 μM), the “percent inhibition CDK1/cyclin B” value was 5%, the “percent inhibition CLK2” value was 26%, the “percent inhibition IRAK1” value came out at 2% and the “percent inhibition JAK3” value came out at 7%. For the same compound, at kinases (Table B) [5], the inhibition at 0.1 µM was found to be 8%. The inhibition at 0.1 µM on kinases (Table B) [8] is 8%. In addition, the inhibition at 0.1 µM on kinases (Table B) [9] was found to be 10%. In addition, the IC50 in assay [2] (setting [10]) stood at 0.75 nM.
Turning to `CC(C)Oc1ccc2[nH]nc(-c3ccnc(N4CCOCC4)c3)c2c1` [Example 400], the half-inhibitory concentration (IC50) is 14 nM in assay [1] and 1.9 nM in assay [2] (setting [10]). In addition, the inhibition at 1 µM at kinases (Table B) [3] was 72%; at kinases (Table B) [5], 9%; on kinases (Table B) [6] it was 51%; at kinases (Table B) [7], 16%; on kinases (Table B) [8] it was 9%; on kinases (Table B) [9] it was 41%. The “percent inhibition CDK1/cyclin B” value in the assay with kinases (Table B) [4] (test conc 1 μM) was found to be 29%. In addition, in the assay on kinases (Table B) [4] (test conc 1 μM), the “percent inhibition CLK2” value amounted to 47%. In the assay on kinases (Table B) [4] (test conc 1 μM), the “percent inhibition IRAK1” value was 11%. Besides, in the assay on kinases (Table B) [4] (test conc 1 μM), the “percent inhibition JAK3” value is 49%.
For the compound `CC(C)Oc1ccc2[nH]nc(-c3ccnc(N4CCC(O)CC4)c3)c2c1` [Example 285], the IC50 in assay [1] worked out at 15 nM; in assay [2] (setting [10]), 3.8 nM.
With `Cn1cc(-c2ccc3[nH]nc(-c4ccnc(N5CCOCC5)c4)c3c2)cn1` [Example 321], the IC50 in assay [1] was 12 nM; in assay [2] (setting [10]), less than 0.6 nM.
